According to PubChem BioAssay AID1850 (Southern Research Specialized Biocontainment Screening …, 2009):
Values joined by “and” are separate entries in the source; they are usually repeats but may differ in a detail not shown here. Equal values may be shown once.

System: Salmonella Typhi PhoP-promoter GFP reporter, fluorescence, 4 h
Assay: Inhibition of PhoP regulon, Salmonella typhi GFP reporter cells, confirmation, 4 h (AID 1850)

| Compound | IC50 |
| --- | --- |
| N/C(=N\OS(=O)(=O)c1ccccc1)c1cccnc1 | 14.2 µM |
| O=C1c2cccc3cccc(c23)C(=O)C1(O)O | 48.4 µM |
| O=C(CSc1nc2ccccc2s1)N/N=C/c1cc([N+](=O)[O-])ccc1O | 72.5 µM |
| Cc1ccc(C)c(Nc2cc(C)nc3ccccc23)c1 | 51.5 µM |
| O=C(/C=C/c1ccccc1)c1cc(Br)ccc(=O)c1O | 24.5 µM |
| CN1CCN(Cc2cc(COCc3ccccc3)c3cccnc3c2O)CC1 | 37.6 µM |
| O=C(/C=C/c1cccs1)NC(=S)NNC(=O)c1ccccc1O | 35.2 µM |
| COc1ccc(Nc2c3ccccc3nc3ccccc23)cc1 | 35.4 µM |
| C=CC1=C(C(=O)O)N2C(=O)[C@@H](NC(=O)/C(=N\O)c3csc(N)n3)[C@H]2SC1 (stereo in doubt) | 19.1 µM |
| O/N=C/C1=C(Cl)c2ccccc2CC1 | 125 µM |
| Cc1ccc(C(C[N+](=O)[O-])Sc2ccc(N)cc2)cc1 (configuration not stated) | 55.1 µM |
| CC(C(=O)NC1C=CS(=O)(=O)C1)N1C(=O)/C(=C/c2ccc(Cl)cc2)SC1=S (configuration not stated) | 32 µM |
| CN(C)CC/C=C1\c2ccccc2Sc2cc(F)c(Cl)cc21 | 26.5 µM |
| OC(CNCCc1ccc(Cl)cc1Cl)COc1ccccc1 (configuration not stated) | 71 µM |
| C#CCOCCOCCOCCNc1nc(N2CCN(C(=O)CCCCCCCCCCNC(=O)Cn3cc(CCCCCN)nn3)CC2)nc(N2CCN(C(=O)CCCCCCCCCCNC(=O)[C@H]([C@@H](C)CC)n3cc(CCCCCN)nn3)CC2)n1 | 38.9 µM |
| C[C@H]1O[C@@H](n2cc(F)c(=O)[nH]c2=O)[C@H](O)[C@@H]1O | 32.2 µM |
| C/C(=N\NC(=O)c1ccc(Cl)cc1)c1ccccn1 | 33.4 µM |
| COc1cccc(Nc2cc(C)nc3ccccc23)c1 | 69.6 µM |
| Oc1c(Br)cc(Br)cc1C=NCc1ccccc1 | 86.6 µM |
| NC(=O)SCC(=O)Nc1cccc(Cl)c1 | 9.08 µM |
| c1ccc(-c2nc3ccccc3[nH]2)cc1 | 48 µM |
| Clc1ccc(OCCCNCc2ccccc2)c(Br)c1 | 37.6 µM |
| CN(C)CCCNC(=O)c1ccc(-c2nc(-c3ccc(Cl)cc3)cs2)cc1 | 20.8 µM |
| O=C(CC1NCCc2ccccc21)Nc1ccc(Oc2ccccc2)cc1 (configuration not stated) | 47.3 µM |

| Compound | IC50 |
| --- | --- |
| CC1CCN(CCCNC(=O)c2ccc3c(=O)n(Cc4ccc(Cl)cc4)c(=S)[nH]c3c2)CC1 | 44.5 µM |
| O=C(Cn1nc(CNc2ccc(Cl)cc2)[n+]2c1CCCCC2)c1ccc(Br)cc1 | 51.4 µM |
| Cc1cc(OCC(O)CNC(C)c2ccccc2)ccc1C(C)C (configuration not stated) | 38.1 µM |
| O=C(N/N=C/c1cc([N+](=O)[O-])ccc1O)c1cccc2cc[nH]c12 | 36.5 µM |
| Cc1cc(C)n2nc(S(=O)(=O)Nc3c(Cl)cccc3Cl)nc2n1 | 63.5 µM |
| CCOC(=O)N1CCN(CCC(=O)c2ccc(Cl)cc2)CC1 | 77.2 µM |
| O=C(NC(=S)NNC(=O)c1cccs1)c1ccc(Br)o1 | 64.3 µM |
| Oc1c(Cl)cc(CN2CCCCC2)c2cccnc12 | 20 µM |
| O=C(Nc1cccc(Br)c1)c1cc2ccccc2o1 | 25.4 µM |
| COc1cc(Br)cc(/C=N/c2ncn[nH]2)c1O | 98.4 µM |
| Cc1cc([N+](=O)[O-])nn1CC(=O)N/N=C/c1ccccc1O | 47.1 µM |
| O=C(CCN1CCN(c2ccccc2F)CC1)c1ccc(Br)cc1 | 39 µM |
| NC(=O)SCC(=O)Nc1ccc(Cl)c(Cl)c1 | 13.7 µM |
| O=C(CCN1CCN(c2ccccc2)CC1)N/N=C/c1ccc([N+](=O)[O-])o1 | 138 µM |
| COc1c(N2CCN(C(=S)NCc3ccccc3)C(C)C2)c(F)cc2c(=O)c(C(=O)O)cn(C3CC3)c12 (configuration not stated) | 36.1 µM |
| CCn1cc(C(=O)NCCN(C)C)c(=O)c2cc(F)c(N3CCN(C)CC3)cc21 | 23.2 µM |
| CCCCCCCCCCOC(=O)Cn1c(COc2ccccc2C)[n+](C)c2ccccc21 | 13.2 µM |
| CN(C)CCNc1oc(COc2ccc(-c3ccccc3)cc2)nc1C#N | 59.2 µM |
| Nc1nonc1C(=O)N/N=C/c1cc(Br)ccc1O | 10.5 µM |
| O=C(c1cccs1)c1no[n+]([O-])c1C(=O)c1cccs1 | 28.4 µM |
| N=c1c2c(n(Cc3ccc(Cl)c(Cl)c3)c3c1CCC3)CCCC2 | 37.4 µM |
| COc1ccc(S(=O)(=O)N2CN3CCN(C3)C2)cc1 | 144 µM |
| O=C(CSc1ccccn1)Nc1nonc1[N+](=O)[O-] | 87.3 µM |
| CCOC(=O)C1=C(O)c2ccccc2C(=O)/C1=C\c1ccc(C)cc1 | 142 µM |

| Compound | IC50 |
| --- | --- |
| CN1CCN(/N=C/c2c3ccccc3c(Cl)c3ccccc23)CC1 | 74.6 µM |
| NC(N)=N/N=C/c1ccc(OCc2ccc(Cl)cc2)cc1 | 35.6 µM |
| O=C(Nc1cccnc1)c1cc(Br)c(Br)s1 | 19.1 µM |
| Oc1ccc(COCc2ccccc2)c2cccnc12 | 37.1 µM |
| O=C(C[n+]1cc(-c2ccccc2)n2c1CCC2)Nc1nc(-c2ccc(F)cc2)cs1 | 38.7 µM |
| O=C1CSC(=S)N1c1cccc(O)c1 | 126 µM |
| O=C(CCc1ccccc1)NNC(=S)NC(=O)c1ccccc1 | 118 µM |
| Cc1ccc(C(=O)NNC(=S)NC(=O)c2ccccc2)cc1 | 62.6 µM |
| NC1=NC[C@H](Cc2ccc(O)cc2)N1CCc1cccc2ccccc12 | 50.2 µM |
| O=C(/C=C/c1ccccc1)NC(=S)NNC(=O)c1cnccn1 | 29.7 µM |
| c1ccc(CNc2nc(N3CCN(Cc4ccccc4)CC3)nc3ccccc23)cc1 | 18.2 µM |
| CC1(C)N=C(N)NC(Nc2ccc(Br)cc2)=N1 | 38.8 µM |
| Clc1ccc(Nc2ccc(NCc3ccccc3)nn2)cc1 | 101 µM |
| O=C(O)c1sccc1Oc1ccc(F)cc1[N+](=O)[O-] | 88.7 µM |
| CC(NCc1ccccc1O)C12CC3CC(CC(C3)C1)C2 (configuration not stated) | 34.2 µM |
| C=C1c2cccc(O)c2C(O)=C2C(=O)[C@]3(O)C(O)=C(C(N)=O)C(=O)[C@@H](N(C)C)[C@@H]3[C@@H](O)[C@H]12 | 0.56 µM |
| CN1CC(C(=O)c2ccc(Cl)cc2)C(c2ccc(Cl)cc2Cl)C1 (configuration not stated) | 37.4 µM |
| O=c1[nH]c(-c2ccccn2)nc(C(F)(F)F)c1Br | 70.2 µM |
| O=C(N/N=C/c1cc([N+](=O)[O-])ccc1O)C1CC1 | 29.5 µM |
| O=C(CNC(=O)c1ccccc1)N/N=C/c1ccc([N+](=O)[O-])s1 | 19.7 µM |
| CC(=O)NC(=S)NNC(=O)c1ccc(Br)cc1 | 34.9 µM |
| Cc1ccccc1S(=O)(=O)NNC(=O)C(=O)NNc1ccccn1 | 74.3 µM |
| CCOC(=O)Cn1c(=N)n(CCOc2ccc3ccccc3c2)c2ccccc21 | 53.1 µM |
| Cc1nc2c(=O)n(C)c(=O)nc-2n(C)n1 | 1.29 µM |

| Compound | IC50 |
| --- | --- |
| CN(C)CC/C=C1/c2ccccc2Sc2ccc(Cl)cc21 | 49.1 µM |
| CCn1cc(C(=O)O)c(=O)c2cc(F)c(N3CCN(C(=S)NC(=O)c4ccccc4F)CC3)cc21 | 55.1 µM |
| CCCCCCCCCCOC(=O)C[N+](C)(C)CC1CCCCC1O (configuration not stated) | 34.9 µM |
| O=C(Nc1cccc(C2=NCCN2)c1)Nc1cccc(C2=NCCN2)c1 | 71.9 µM |
| CC(NCC(O)COc1ccc2ccccc2c1)c1ccccc1 (configuration not stated) | 79.8 µM |
| CN(C)CCCNc1c2ccccc2nc2ccccc12 | 34.8 µM |
| Cc1cccc(OCC(O)Cn2c(=N)n(CCN3CCCCC3)c3ccccc32)c1 (configuration not stated) | 78.3 µM |
| CCCOc1ccc(C(=O)NNC(=S)NC(C)=O)cc1 | 35.5 µM |
| O=S1(=O)CC=C(CSC(=S)NC2CCS(=O)(=O)C2)C1 (configuration not stated) | 78.4 µM |
| Nc1nc(N)c(Cc2ccc(Cl)cc2Cl)c(N)n1 | 94.9 µM |
| c1ccc(Nc2nc(NCc3ccco3)c3ccccc3n2)cc1 | 5.97 µM |
| O=C(/C=C/c1ccc(F)cc1)NC(=S)NNC(=O)c1cnccn1 | 28.6 µM |
| O=C(N/N=C/c1ccc([N+](=O)[O-])s1)C(O)c1ccccc1 (configuration not stated) | 39.4 µM |
| CCCCCOc1ccc(C)cc1CN(CCCl)CCCl | 30.4 µM |
| O=C(CNCCC1=CCCCC1)Nc1ccc(N2CCCCCC2)cc1 | 29.6 µM |
| CN(C)CCCN1c2ccccc2Sc2ccc(Cl)cc21 | 68.6 µM and 39 µM |
| O=C(NCCCN1CCN(c2ccc(F)cc2)CC1)Nc1ccc([N+](=O)[O-])cc1 | 76.1 µM |
| CCCNC1=C(C)C(=O)C2=C(C1=O)C(COC(N)=O)[C@]1(OC)C3NC3CN21 (some centres not stated) | 15.9 µM |
| CCN1/C(=C/C(C)=C/c2sc3ccccc3[n+]2CC)Sc2ccccc21 | 4.88 µM |
| C/C(O)=C\c1nc2ccccc2oc1=O | 44.4 µM |
| C#CCOCCOCCOCCNc1nc(N2CCN(C(=O)CCCCCCCCCCNC(=O)[C@@H](CCSC)n3cc(CCO)nn3)CC2)nc(N2CCN(C(=O)CCCCCCCCCCNC(=O)[C@H]([C@@H](C)CC)n3cc(CCCCN=C(N)N)nn3)CC2)n1 | 82.7 µM |
| COCCCNC(=S)NNC(=O)c1ccccn1 | 37.4 µM |
| O=C(O)c1cn(-c2ccc(F)cc2)c2cc(Cl)c(F)cc2c1=O | 83.7 µM |
| C#CCOCCOCCOCCNc1nc(N2CCN(C(=O)CCCCCCCCCCNC(=O)[C@H](CCCCN)n3cc(CCO)nn3)CC2)nc(N2CCN(C(=O)CCCCCCCCCCNC(=O)[C@H](CCCCN)n3cc(C[C@@H](C)CC)nn3)CC2)n1 | 31.9 µM |

| Compound | IC50 |
| --- | --- |
| O=[N+]([O-])c1ccc(O)c(/C=N/Nc2ccccn2)c1 | 13.2 µM |
| CCn1cc(C(=O)O)c(=O)c2cc3c(cc21)OCO3 | 43.3 µM |
| Cc1ccc(NC(=O)CNCc2ccccc2)cc1Br | 52.9 µM |
| O=C(Nc1nnc(-c2cccs2)o1)c1cccc(F)c1 | 34.1 µM |
| O=C(N/N=C/c1cc(O)ccc1Br)c1cccnc1 | 38.5 µM |
| Cc1ccc(C(=O)O)cc1N=Cc1cc(Br)cc(Br)c1O | 27.4 µM |
| Cc1ccc2c(c1)c1c(n2CC(O)CNC2CCCCC2)CCCC1 (configuration not stated) | 46.9 µM |
| COc1ccc(C2NCCc3c2[nH]c2ccccc32)cc1COc1ccc(F)cc1 (configuration not stated) | 39.1 µM |
| OCCN1CCN(C2CCC(c3ccc(F)cc3)c3ccc(F)cc32)CC1 (configuration not stated) | 36.6 µM |
| Cc1ccc(-c2c[n+](Cc3ccc(Cl)c(Cl)c3)c3n2CCC3)cc1 | 33.3 µM |
| Cc1cc(NS(=O)(=O)c2ccc(NC(=O)Nc3cccc(Cl)c3)cc2)no1 | 148 µM |
| O=c1c2ccccc2nc(N/N=C/c2c(O)ccc3ccccc23)n1O | 24.9 µM |
| Cc1ccc(CNCCC2=CCCCC2)cc1 | 46.1 µM |
| CNCCCC1c2ccccc2C=Cc2ccccc21 | 136 µM |
| O=C(N/N=C/c1ccc([N+](=O)[O-])s1)c1cccnc1 | 24 µM |
| C=CCNc1ncnc2c1[nH]c1ccc(C)cc12 | 18.9 µM |
| O=C(NC(=S)NNC(=O)c1ccco1)c1ccc(Br)cc1 | 88.4 µM |
| COc1ccc(OCC(O)CNc2ccc(Br)cc2)cc1 (configuration not stated) | 5.72 µM |
| CO[C@@]1(NC(=O)C2SC(=C(C(N)=O)C(=O)O)S2)C(=O)N2C(C(=O)O)=C(CSc3nnnn3C)CS[C@@H]21 (some centres not stated) | 9.42 µM |
| CC1CCc2c(N3CCC(O)CC3)c(F)cc3c(=O)c(C(=O)O)cn1c23 (configuration not stated) | 3.02 µM |
| Fc1ccc(CCNCc2ccccc2Cl)cc1 | 73.4 µM |
